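The compound was tested at five concentrations on cells cultured in 96-well plates, with a 48-hour exposure period. GI50 = concentration required for 50% inhibition of growth. Definition used: TGI = concentration required for complete inhibition of growth.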 Where only a bound is given, the exact number is not on record here.

We go through 5 compounds from PubChem BioAssay (NCI).

Holding throughout (experiment): NCI-60 cell line screen, 48 h
Test [1] relates to LOX IMVI melanoma.
The test system of test [2] is HCT-116 colon.
Test [3] deals with CAKI-1 renal.
In test [4] the test system is UO-31 renal.
Test [5] has as its system OVCAR-8 ovarian.
Test [6] concerns SF-539 CNS.
Test [7] concerns SF-268 CNS.
Test [8] deals with NCI-H226 lung.
The subject of test [9] is HOP-92 NSCLC.
Test [10] concerns OVCAR-4 ovarian.

In the case of `[Cl][Hg][Cl]`, the GI50 in [1] was 1720 nM; in test [2] it was 18000 nM; in test [3] it was 13700 nM; in test [4], 22700 nM; in [5], 21600 nM; in test [6], 18300 nM. The GI50 in [7] is 18100 nM; in [8] it was 25100 nM; in test [9], 17300 nM; in test [10], 16900 nM. In addition, the TGI amounted to 16000 nM in test [1]; 33400 nM in [2]; 18100 nM in test [3]; 37200 nM in test [4]; 56300 nM in [5]; 33500 nM in test [6]. The TGI is 46900 nM in test [7], 47700 nM in [8], 32700 nM in test [9] and 35000 nM in test [10].

Regarding `CC(C)(C)C(=O)c1c(C(F)(F)F)n([O-])c2ccccc2[n+]1=O`, the GI50 was 396 nM in [1]; 619 nM in [2]; 282 nM in test [3]; 342 nM in test [4]; 254 nM in test [5]; 846 nM in test [6]. The GI50 in test [7] is 549 nM; in test [8], 840 nM; in test [9], 573 nM; in test [10], 600 nM. For the same compound, the TGI in test [1] was 1700 nM; in [2], 1590 nM; in test [3], 811 nM; in test [4], 729 nM; in [5], 1350 nM; in test [6] it was 2370 nM. The TGI is 1750 nM in test [7], 2480 nM in test [8], 1930 nM in [9] and 2430 nM in test [10].

Take `CC(=O)[CH-]C(C)=O.CC(=O)[CH-]C(C)=O.[CH2-]CCC.[CH2-]CCC.[Sn+4]`: the GI50 is 174 nM in test [1]; 650 nM in test [2]; 151 nM in test [3]; 1030 nM in test [4]; 788 nM in [5]; 610 nM in [6]. Moreover, the GI50 was 291 nM in test [7], 1770 nM in test [8], 256 nM in test [9] and 1310 nM in test [10]. Moreover, the TGI in test [1] was found to be 464 nM; in test [2], 1960 nM; in test [3], 874 nM; in [4], 2210 nM; in test [5], 2050 nM; in test [6], 1910 nM. The TGI in test [7] was determined as 1200 nM; in test [8] it was 3450 nM; in test [9] it was 1250 nM; in test [10] it was 2610 nM.

With `COc1ccc(-c2cn[nH]c2-c2cc(OC)c3c(c2)OCO3)cc1`, the GI50 is 599 nM in [1]; 277 nM in [2]; 262 nM in test [3]; 669 nM in test [4]; 423 nM in test [5]; 193 nM in test [6]. The GI50 in test [7] was 854 nM; in test [8] it was 1340 nM; in test [9], 417 nM; in [10], 2150 nM. The TGI was determined as 19200 nM in [1]; 11700 nM in test [2]; 24900 nM in test [3]; 23100 nM in test [4]; 15100 nM in test [5]; 539 nM in [6]. Further, the TGI came out at 31000 nM in test [7], 22300 nM in [8], 20800 nM in test [9] and 62900 nM in [10].

Take `COc1ccc(S(=O)(=O)N2CC(C)(C)CN(S(=O)(=O)c3ccc(OC)cc3)C2C(=O)NO)cc1`: the GI50 in test [1] was more than 11100 nM; in test [2], more than 20000 nM; in [3], more than 14100 nM; in [4], more than 11500 nM; in test [5], more than 20000 nM; in [6], more than 20000 nM. The GI50 in [7] was more than 20000 nM; in [8], more than 17100 nM; in test [9], 8140 nM; in [10], more than 20000 nM. For the same compound, the TGI in test [1], in [2], in [3], in test [4], in test [5] and in test [6] was more than 20000 nM in each case. In addition, the TGI in test [7], in [8], in [9] and in test [10] was more than 20000 nM in each case.
